Reference: patent US9770026B2, “Substituted pyrimidine compound and uses thereof” (Shenyang Sinochem Agrochemicals R&D Co., Ltd., priority 2012, dated 2017)

How the values were obtained:
wheat powdery mildew = test: protectant activity in vivo against wheat powdery mildew
corn rust = test: protectant activity in vivo against corn rust
[1] = tested on: Green peach aphids (Myzus Persicae Sulzer); test: bioactivity test against green peach aphid, airbrush foliar spray; assay type: in vivo; details: for Insecticidal activity against peach aphid (%): contrastive test
Procedure: (§1) Compounds were dissolved in mixed solvent (acetone:methanol=1:1), and diluted to required concentration with water containing 0.1% of tween 80.
(§2) Diamond back moth, armyworm, peach aphid and carmine spider mite were used as targets and the method of spraying by airbrush was used for determination of insecticidal biassays.
Method: Filter papers were put in culture dishes (Diameter=6 cm), and water was dripped on filter papers for preserving moisture. Green peach aphids (Myzus Persicae Sulzer) were maintained on cabbage. Leaves (Diameter=3 cm) of approximately 15-30 aphids were put in the culture dishes. Bioactivity tests were used the method of Airbrush Foliar Spray, pressure=10 psi (0.7 kg/cm2), spray volume=0.5 mL. The studies were conducted at […] 25±1 C in incubator cabinets with 60±5% RH. Survey the survival aphids after 48 hrs and calculate the death rates.

cucumber downy mildew = test: protectant activity in vivo against cucumber downy mildew; details: for control effect against cucumber downy mildew (%): protectant activity
carmine spider mite = test: bioactivity test against carmine spider mite, airbrush spray; assay type: in vivo; details: 600 ppm, mortality after 72 hrs
Procedure: as §1, §2
The method: Broadbean shoots with two true leaves in pot were taken, the healthy adults of carmine spider mite were inoculated to the leaves. The adults were counted and then sprayed with airbrush at the pressure of 0.7 kg/cm^2 and at dose of 0.5 ml. 3 replicates were set for each treatment. And then they were maintained in standard observation room. Scores were conducted and mortalities were calculated after 72 hrs.

[2] = 10 ppm, death rate after 48 hrs
[3] = 100 ppm, death rate after 48 hrs
[4] = 600 ppm, death rate after 48 hrs

SMILES | control (test results against green peach aphid) [1, 3] [%] | control (test results against green peach aphid) [1, 4] [%] | protectant activity against wheat powdery mildew in vivo (wheat powdery mildew; 400 ppm) [%] | protectant activity against cucumber downy mildew in vivo (cucumber downy mildew; 400 ppm) [%] | protectant activity against corn rust in vivo (corn rust; 400 ppm) [%] | protectant activity against cucumber downy mildew in vivo (cucumber downy mildew; 100 ppm) [%] | control effect against cucumber downy mildew (%) (cucumber downy mildew; 25 mg/L) | control effect against cucumber downy mildew (%) (cucumber downy mildew; 50 mg/L) | control effect against cucumber downy mildew (%) (cucumber downy mildew; 100 mg/L) | control effect against cucumber downy mildew (%) (cucumber downy mildew; 400 mg/L) | protectant activity against cucumber downy mildew in vivo (cucumber downy mildew; 25 ppm) [%] | protectant activity against cucumber downy mildew in vivo (cucumber downy mildew; 50 ppm) [%] | control effect against cucumber downy mildew (%) (cucumber downy mildew; 12.5 mg/L) | further results
FC(F)(F)c1ccc(Oc2ccc(CNc3ncnc4ccccc34)cc2)nc1 [CK31, reference compound] |  |  |  |  |  |  |  |  |  |  |  |  |  | pest or weed control at 6.25 µg/mL (wheat powdery mildew; Triticum aestivum, 168 h, read-out: control effect against wheat powdery mildew (%), 6.25 mg/L, protectant activity): 0%; pest or weed control at 25 µg/mL (wheat powdery mildew; Triticum aestivum, 168 h, read-out: control effect against wheat powdery mildew (%), 25 mg/L, protectant activity): 0%; pest or weed control at 100 µg/mL (wheat powdery mildew; Triticum aestivum, 168 h, read-out: control effect against wheat powdery mildew (%), 100 mg/L, protectant activity): 0%; pest or weed control at 400 µg/mL (wheat powdery mildew; Triticum aestivum, 168 h, read-out: control effect against wheat powdery mildew (%), 400 mg/L, protectant activity): 0%; pest or weed control at 6.25 µg/mL (corn rust; Zea mays, 168 h, read-out: control effect against corn rust (%), 6.25 mg/L, protectant activity): 0%; pest or weed control at 25 µg/mL (corn rust; Zea mays, 168 h, read-out: control effect against corn rust (%), 25 mg/L, protectant activity): 0%; pest or weed control at 100 µg/mL (corn rust; Zea mays, 168 h, read-out: control effect against corn rust (%), 100 mg/L, protectant activity): 0%; pest or weed control at 400 µg/mL (corn rust; Zea mays, 168 h, read-out: control effect against corn rust (%), 400 mg/L, protectant activity): 0%
CCOC(=O)c1ccc(Oc2ccc(CCNc3ncnc(C)c3Cl)cc2)nc1 [Compound I-35] | 100 | 100 | 100 | 100 | 100 |  |  |  |  |  |  |  |  | control (test results against green peach aphid) [1, 2]: 100%; protectant activity against corn rust in vivo (corn rust; 100 ppm): 100%
CCc1ncnc(NCCc2ccc(Oc3ncc(C(F)(F)F)cc3Cl)cc2)c1Cl [Compound I-602] | 100 | 100 | 100 | 100 |  | 100 |  |  |  |  |  |  |  | protectant activity against wheat powdery mildew in vivo (wheat powdery mildew; 100 ppm): 100%; control against carmine spider mite (carmine spider mite): 100%
FC(F)c1ncnc(NCCc2ccc(Oc3ncc(Cl)cc3Cl)cc2)c1Cl [Compound I-2555] | 100 | 100 | 100 | 100 | 100 |  |  |  |  |  |  |  |  | protectant activity against wheat powdery mildew in vivo (wheat powdery mildew; 25 ppm): 100%; protectant activity against wheat powdery mildew in vivo (wheat powdery mildew; 100 ppm): 100%
CCc1nc(C)nc(NCCc2ccc(Oc3nc(Cl)c(Cl)cc3Cl)cc2)c1Cl [Compound I-6790] |  |  |  |  |  |  |  |  |  |  |  |  |  | pest or weed control at 600 ppm ([1]; Myzus persicae, foliar, 48 h, 600 ppm, death rate after 48 hrs): 100%; pest or weed control at 400 ppm (wheat powdery mildew; Triticum aestivum, 168 h, read-out: protectant activity against wheat powdery mildew in vivo, 400 ppm): 100%; pest or weed control at 25 ppm (cucumber downy mildew; Cucumis sativus, 168 h, read-out: protectant activity against cucumber downy mildew in vivo, 25 ppm): 80 to 99%; pest or weed control at 50 ppm (cucumber downy mildew; Cucumis sativus, 168 h, read-out: protectant activity against cucumber downy mildew in vivo, 50 ppm): 80 to 99%; pest or weed control at 100 ppm (cucumber downy mildew; Cucumis sativus, 168 h, read-out: protectant activity against cucumber downy mildew in vivo, 100 ppm): 80 to 99%; pest or weed control at 400 ppm (cucumber downy mildew; Cucumis sativus, 168 h, read-out: protectant activity against cucumber downy mildew in vivo, 400 ppm): 100%; pest or weed control at 400 ppm (corn rust; Zea mays, 168 h, read-out: protectant activity against corn rust in vivo, 400 ppm): 100%
Cc1ncnc(NCCc2ccc(Oc3ccccc3Cl)nc2)c1Cl [III-5] |  | 100 | 100 | 100 |  | 100 | 100 | 100 | 100 | 100 | 100 | 100 |  | control against carmine spider mite (carmine spider mite): 100%
Cc1ncnc(NCCc2ccc(Oc3ccc(Cl)cc3Cl)nc2)c1Cl [III-82] |  | 100 | 100 | 100 | 100 | 100 | 100 | 100 | 100 | 100 | 100 | 100 | 98 | 
Cc1ncnc(NCCc2ccc(Oc3cc(Cl)ccc3Cl)nc2)c1Cl [III-83] |  | 100 | 100 |  | 100 |  |  |  |  |  |  |  |  | 
CCc1ncnc(NCCc2ccc(Oc3cccc(Cl)c3)nc2)c1Cl [III-186] | 100 | 100 | 100 |  | 100 |  |  |  |  |  |  |  |  | 
CCc1ncnc(NCCc2ccc(Oc3ccc(Cl)cc3Cl)nc2)c1Cl [III-262] | 100 | 100 | 100 | 100 | 100 | 100 | 100 | 100 | 100 | 100 | 100 | 100 |  | control effect against corn rust (%) (corn rust; 0.4 mg/L, protectant activity): 60%; control effect against corn rust (%) (corn rust; 1.6 mg/L, protectant activity): 90%; control effect against corn rust (%) (corn rust; 6.25 mg/L, protectant activity): 90%; control effect against corn rust (%) (corn rust; 25 mg/L, protectant activity): 100%; control effect against corn rust (%) (corn rust; 100 mg/L, protectant activity): 100%; control effect against corn rust (%) (corn rust; 400 mg/L, protectant activity): 100%; protectant activity against corn rust in vivo (corn rust; 25 ppm): 100%; protectant activity against corn rust in vivo (corn rust; 100 ppm): 100%
CCc1ncnc(NCCc2ccc(Oc3cc(Cl)ccc3Cl)nc2)c1Cl [III-263] |  | 100 | 100 | 100 |  | 100 | 100 | 100 | 100 | 100 | 100 | 100 | 98 | control effect against cucumber downy mildew (%) (cucumber downy mildew; 6.25 mg/L): 70%
CCc1ncnc(NCCc2ccc(Oc3ccc(C(F)(F)F)cc3Cl)nc2)c1Cl [III-301] | 100 | 100 | 100 | 100 | 100 | 100 | 100 | 100 | 100 | 100 | 100 | 100 | 100 | Insecticidal activity against peach aphid (%) ([1]; 10 mg/L): 100%; Insecticidal activity against peach aphid (%) ([1]; 100 mg/L): 100%; Insecticidal activity against peach aphid (%) ([1]; 600 mg/L): 100%; control (test results against green peach aphid) [1, 2]: 100%; protectant activity against wheat powdery mildew in vivo (wheat powdery mildew; 100 ppm): 100%; control effect against cucumber downy mildew (%) (cucumber downy mildew; 6.25 mg/L): 100%; protectant activity against cucumber downy mildew in vivo (cucumber downy mildew; 6.25 ppm): 100%; protectant activity against cucumber downy mildew in vivo (cucumber downy mildew; 12.5 ppm): 100%; protectant activity against corn rust in vivo (corn rust; 100 ppm): 100%
COc1ccc(Oc2ccc(CCNc3nc(C)nc(Cl)c3Cl)cn2)cc1 [III-2539] |  | 100 |  | 100 | 100 | 100 | 100 | 100 | 100 | 100 | 100 | 100 | 85 | control against carmine spider mite (carmine spider mite): 100%
